Common to all, as to type: in vivo
One data set has as its system Bemisia tabaci. The experiment in a line: Activity against Bemisia tabaci (cotton white fly), cotton leaf discs. The settings on record: foliar; for mortality at 200 ppm: 144 h, application rate 200 ppm, adult white flies, 6 days after incubation; for mortality at 12.5 ppm: concentration 12.5 ppm. The protocol:
Example B6: Activity Against Bemisia tabaci (Cotton White Fly)
Cotton leaf discs were placed on agar in 24-well microtiter plates and sprayed with aqueous test solutions prepared from 10′000 ppm DMSO stock solutions. After drying the leaf discs were infested with adult white flies. The samples were checked for mortality 6 days after incubation.

The test system of data set [1] is Myzus persicae. The experiment in a line: Activity against Myzus persicae (green peach aphid), feeding/contact activity, sunflower leaf discs. To be noted: for mortality at 200 ppm: 144 h, application rate 200 ppm, feeding/contact, 6 days after infestation. As for the experimental part:
Example B4: Activity Against Myzus persicae (Green Peach Aphid) Feeding/Contact Activity
Sunflower leaf discs were placed on agar in a 24-well microtiter plate and sprayed with aqueous test solutions prepared from 10′000 ppm DMSO stock solutions. After drying, the leaf discs were infested with an aphid population of mixed ages. The samples were assessed for mortality 6 days after infestation.

Data set [2] relates to Myzus persicae. The experiment in a line: Activity against Myzus persicae (green peach aphid), systemic activity, pea seedlings. The settings on record: Myzus persicae. The protocol:
Example B5: Activity Against Myzus persicae (Green Peach Aphid) Systemic Activity
Roots of pea seedlings infested with an aphid population of mixed ages were placed directly in the aqueous test solutions prepared from 10′000 DMSO stock solutions. The samples were assessed for mortality 6 days after placing seedlings in test solutions.

Another data set deals with Diabrotica balteata. The experiment in a line: Activity against Diabrotica balteata (corn root worm), maize sprouts. To be noted: for mortality at 50 ppm: concentration 50 ppm; for mortality at 3.125 ppm: concentration 3.125 ppm; for percent effect (mortality or growth inhibition) at 200 ppm: 96 h, application rate 200 ppm, L2 larvae, 4 days after infestation, read-out: effect in at least one of the two categories (mortality or growth inhibition). As for the experimental part:
Example B3: Activity Against Diabrotica Balteata (Corn Root Worm)
Maize sprouts placed onto an agar layer in 24-well microtiter plates were treated with aqueous test solutions prepared from 10′000 ppm DMSO stock solutions by spraying. After drying, the plates were infested with L2 larvae (6 to 10 per well). The samples were assessed for mortality and growth inhibition in comparison to untreated samples 4 days after infestation.

For another data set, the system named is Spodoptera littoralis. The data set can be described thus: Activity against Spodoptera littoralis (Egyptian cotton leaf worm), cotton leaf discs. The settings on record: foliar, 72 h, application rate 200 ppm, L1 larvae, 3 days after infestation, read-out: control (mortality, anti-feeding effect or growth inhibition). The protocol:
Example B1: Activity Against Spodoptera littoralis (Egyptian Cotton Leaf Worm)
Cotton leaf discs were placed onto agar in 24-well microtiter plates and sprayed with aqueous test solutions prepared from 10′000 ppm DMSO stock solutions. After drying the leaf discs were infested with five L1 larvae. The samples were assessed for mortality, anti-feeding effect, and growth inhibition in comparison to untreated samples 3 days after infestation. Control of Spodoptera littoralis by a test sample is given when at least one of the categories mortality, anti-feedant effect, and growth inhibition is higher than the untreated sample.

Setting [3] is: 144 h, test rate 24 ppm, systemic, 6 days after placing seedlings in test solutions.
[4] abbreviates: Myzus persicae (systemic), concentration 24 ppm.
The mark [5] stands for this setting: Myzus persicae, foliar, Myzus persicae (feeding/contact), concentration 3.125 ppm.

As to `CCS(=N)(=O)c1cc(C(C)(C)C#N)cnc1-c1nc2cc(C(F)(F)F)ncc2n1C` (racemic) [Compound P4, 2-[5-(ethylsulfonimidoyl)-6-[3-methyl-6-(trifluoromethyl)imidazo[4,5-c]pyridin-2-yl]-3-pyridyl]-2-methyl-propanenitrile], the mortality (commonly the percentage killed) at 200 ppm in the data set on Bemisia tabaci was no less than 80%; with Myzus persicae [1] (Myzus persicae, foliar), no less than 80%. Besides, the mortality at 24 ppm in the data set on Myzus persicae [2] (setting [3]) was no less than 80%.

Consider `CCS(=N)(=O)c1cc(C2(C#N)CC2)cnc1-c1nc2cc(C(F)(F)F)cnc2n1C` (racemic) [Described in WO19/234158 as compound P6, reference compound], for which, in the data set on Bemisia tabaci, the mortality at 12.5 ppm amounted to 50%.

Turning to `CCS(=N)(=O)c1cc(C2(C#N)CC2)ccc1-c1nc2cc(C(F)(F)F)ncc2n1C` (racemic) [Described in WO19/234158 as compound P13, reference compound], the mortality at 12.5 ppm in the data set on Bemisia tabaci came out at 0%. The compound further had a mortality at 50 ppm with Diabrotica balteata of 0%.

In the data set with Diabrotica balteata, `CCn1c(C(F)(F)F)cc2nc(-c3ncc(C4(C#N)CC4)cc3S(=N)(=O)CC)n(C)c2c1=O` (racemic) [Described in WO19/234158 as compound P14, reference compound] registered a mortality at 50 ppm of 0%.

In the data set on Diabrotica balteata, `CCS(=N)(=O)c1cc(C2(C#N)CC2)ccc1-c1nc2cc(C(F)(F)F)cnc2n1C` (racemic) [Described in WO19/234158 as compound P15, reference compound] gave a mortality at 50 ppm of 0%.

For the compound `CCS(=N)(=O)c1cc(OC(C)(C)C#N)cnc1-c1nc2cc(C(F)(F)F)ncc2n1C` (racemic) [Described in WO20/084075 as compound P1, reference compound], in the data set with Diabrotica balteata, the mortality at 50 ppm turned out to be 0%.

For the compound `CCS(=N)(=O)c1cc(OC(C)(C)C#N)cnc1-c1nc2cc(C(F)(F)F)nnc2n1C` (racemic) [Described in WO20/084075 as compound P2, reference compound], the mortality at 12.5 ppm in the data set on Diabrotica balteata (concentration 12.5 ppm) is 0%.

In turn, `CCS(=N)(=O)c1cc(OC(C)(C)C#N)cnc1-c1nc2cc(C(F)(F)F)cnc2n1C` (racemic) [Described in WO20/084075 as compound P3, reference compound] returned a mortality at 50 ppm in the data set on Diabrotica balteata of 80%.

In the case of `CCS(=O)(=O)c1cc(OC(C)(C)C#N)c(C)nc1-c1nc2cc(C(F)(F)F)cnc2n1C` (racemic) [Described in WO20/084075 as compound P4, reference compound], the mortality at 3.125 ppm in the data set on Diabrotica balteata was 0%.

The compound `CCS(=N)(=O)c1cc(OC(C)(C)C#N)cnc1-c1cn2cnc(SC(F)(F)F)cc2n1` (racemic) [Described in WO20/084075 as compound P11, reference compound] yielded a mortality at 50 ppm with Bemisia tabaci (concentration 50 ppm) of 50%.

The compound `CCS(=N)(=O)c1cc(C2(C#N)CC2)cnc1-c1nc2cc(C(F)(F)F)ncc2n1C` (racemic) [reference compound] registered a mortality at 12.5 ppm in the data set with Bemisia tabaci of 50%.

Turning to `CCS(=N)(=O)c1cc(C2(C#N)CC2)cnc1-c1nc2cc(C(F)(F)F)nnc2n1C` (single isomer, unassigned) [Compound P2-B, 1-[5-(ethylsulfonimidoyl)-6-[7-methyl-3-(trifluoromethyl)imidazo[4,5-c]pyridazin-6-yl]-3-pyridyl]cyclopropanecarbonitrile], the “Mortality (%)” value in the data set on Myzus persicae [1] (Myzus persicae (feeding/contact), concentration 3.125 ppm) was determined as 50%.

Consider `CCS(=N)(=O)c1cc(OC(C)(C)C#N)cnc1-c1cn2ccc(C(F)(F)F)cc2n1` (single isomer, unassigned) [Compound P3-A, 2-[[5-(ethylsulfonimidoyl)-6-[7-(trifluoromethyl)imidazo[1,2-a]pyridin-2-yl]-3-pyridyl]oxy]-2-methyl-propanenitrile], for which the percent control (mortality, anti-feedant effect or growth inhibition) at 200 ppm in the data set with Spodoptera littoralis is no less than 80%. Besides, the percent effect (mortality or growth inhibition) at 200 ppm in the data set with Diabrotica balteata was no less than 80%. Besides, the mortality at 200 ppm with Myzus persicae [1] (Myzus persicae, foliar) is no less than 80%.

With `CCS(=N)(=O)c1cc(C(C)(C)C#N)cnc1-c1nc2cc(C(F)(F)F)ncc2n1C` (single isomer, unassigned) [Compound P4-A, 2-[5-(ethylsulfonimidoyl)-6-[3-methyl-6-(trifluoromethyl)imidazo[4,5-c]pyridin-2-yl]-3-pyridyl]-2-methyl-propanenitrile], the mortality at 200 ppm with Bemisia tabaci was no less than 80%; in the data set on Myzus persicae [1] (Myzus persicae, foliar), no less than 80%. Moreover, the mortality at 24 ppm with Myzus persicae [2] (setting [3]) was no less than 80%.

As to `CCS(=N)(=O)c1cc(OC(C)(C)C#N)c(C)nc1-c1nc2cc(C(F)(F)F)cnc2n1C` (single isomer, unassigned) [Compound P5-A, 2-[[5-(ethylsulfonimidoyl)-2-methyl-6-[3-methyl-6-(trifluoromethyl)imidazo[4,5-b]pyridin-2-yl]-3-pyridyl]oxy]-2-methyl-propanenitrile], the mortality at 200 ppm in the data set with Bemisia tabaci was no less than 80%; with Myzus persicae [1] (Myzus persicae, foliar), no less than 80%. In addition, the percent control (mortality, anti-feedant effect or growth inhibition) at 200 ppm with Spodoptera littoralis is no less than 80%. Further, the percent effect (mortality or growth inhibition) at 200 ppm with Diabrotica balteata is no less than 80%. The mortality at 3.125 ppm with Diabrotica balteata was determined as 80%. The mortality at 24 ppm is no less than 80% with Myzus persicae [2] (setting [3]) and 100% with Myzus persicae [2] (setting [4]).

Consider `CCS(=N)(=O)c1cc(OC(C)(C)C#N)cnc1-c1cn2cnc(C(F)(F)F)cc2n1` (single isomer, unassigned) [Compound P11-B, 2-[[5-(ethylsulfonimidoyl)-6-[7-(trifluoromethyl)imidazo[1,2-c]pyrimidin-2-yl]-3-pyridyl]oxy]-2-methyl-propanenitrile], for which the mortality at 200 ppm in the data set with Bemisia tabaci was no less than 80%.

In the case of `CCS(=N)(=O)c1cc(OC(C)(C)C#N)cnc1-c1nc2cc(C(F)(F)F)nnc2n1C` (single isomer, unassigned) [Compound P15-B, 2-[[5-(ethylsulfonimidoyl)-6-[7-methyl-3-(trifluoromethyl)imidazo[4,5-c]pyridazin-6-yl]-3-pyridyl]oxy]-2-methyl-propanenitrile], in the data set on Diabrotica balteata (concentration 12.5 ppm), the “Mortality (%)” value was found to be 100%.

As to `CCS(=O)(=O)c1cc(C2(C#N)CC2)cnc1-c1nc2cc(C(F)(F)F)nnc2n1C` [Described in WO18/108726 as compound H-1, reference compound], the mortality at 3.125 ppm with Myzus persicae [1] (setting [5]) is 80%.

Consider `CCS(=O)(=O)c1cc(OC(C)(C)C#N)cnc1-c1nc2cc(C(F)(F)F)ncc2n1C` [Described in WO18/197315 as compound P18, reference compound], for which the mortality at 12.5 ppm in the data set with Myzus persicae [1] (Myzus persicae, foliar, Myzus persicae (feeding/contact), concentration 12.5 ppm) was found to be 65%.

`CCS(=O)(=O)c1cc(OC(C)(C)C#N)cnc1-c1cn2cnc(C(F)(F)F)cc2n1` [Described in WO18/206348 as compound P13, reference compound] registered a mortality at 24 ppm with Myzus persicae [2] (setting [4]) of 0%.

In turn, `CCS(=O)(=O)c1cc(OC(C)(C)C#N)cnc1-c1nc2cc(C(F)(F)F)cnc2n1C` [Described in WO21/219810 as compound P3, reference compound] yielded a mortality at 24 ppm in the data set on Myzus persicae [2] (setting [4]) of 50%.

Take `CCS(=O)(=O)c1cc(OC(C)(C)C#N)c(C)nc1-c1nc2cc(C(F)(F)F)cnc2n1C` [Described in WO21/219810 as compound P4, reference compound]: the mortality at 24 ppm in the data set on Myzus persicae [2] (setting [4]) amounted to 0%.

`CCS(=O)(=O)c1cc(OC(C)(C)C#N)cnc1-c1nc2cc(C(F)(F)F)n(C3CC3)c(=O)c2n1C` [Described in WO21/219810 as compound P7, reference compound] returned a mortality at 50 ppm in the data set on Myzus persicae [1] (Myzus persicae, foliar, Myzus persicae (contact), concentration 50 ppm) of 0%.

Turning to `CCS(=O)(=O)c1cc(C2(C#N)CC2)cnc1-c1nc2cc(C(F)(F)F)ncc2n1C` [reference compound], the mortality at 0.781 ppm in the data set with Myzus persicae [1] (Myzus persicae, foliar, Myzus persicae (feeding/contact), concentration 0.781 ppm) is 0%.

The compound `CCS(=O)(=O)c1cc(C2(C#N)CC2)ccc1-c1nc2cc(C(F)(F)F)cnc2n1C` [reference compound] had a mortality at 6 ppm with Myzus persicae [2] (Myzus persicae (systemic), concentration 6 ppm) of 0%.

In the data set with Myzus persicae [1] (setting [5]), `CCS(=O)(=O)c1cc(C2(C#N)CC2)cnc1-c1nc2cc(C(F)(F)F)cnc2n1C` [reference compound] registered a mortality at 3.125 ppm of 80%.

Values taken from patent publication US20250081967A1, “PESTICIDALLY ACTIVE HETEROCYCLIC DERIVATIVES WITH SULFOXIMINE CONTAINING SUBSTITUENTS” (SYNGENTA CROP PROTECTION AG, priority 2021, published 2025).
